Reference: US12036312B2, “Non-aqueous topical compositions comprising a halogenated salicylanilide” (priority 2016, dated 2024)
Values after ≈ are worked out from the molar mass of the structure shown. Like-named read-outs stand apart in the source and are kept apart here.

Columns and labels:
S. aureus = assay: Minimum inhibitory concentration (MIC) assay, Example 1, S. aureus strains; assay type: cell-based; settings: Staphylococcus aureus
Excerpt: The methicillin-resistant S. aureus (MRSA) 01 strain was used as the primary test microorganism as a representative bacteria commonly found in skin infections. This strain is a community-acquired MRSA clinical isolate of USA 300 type, from a skin abscess.
Twenty-one other MRSA and methicillin-sensitive S. aureus strains, and 4 Streptococcus pyogenes strains, were also included in the study (Table 2). These covered fusidic acid- and mupirocin-resistant strains, these two types of resistance being of clinical relevance.
Strains were conserved in Luria Bertani (LB) Broth (S. aureus) or Brain Heart Infusion (BHI) (S. pyogenes) supplemented with glycerol 15% (v/v) at −80° C., and reactivated by isolation on LB (S. aureus) or BHI (S. pyogenes) agar plates. Strains were cultivated in Mueller Hinton (MH) Broth-cation adjusted (S. aureus) supplemented with lysed horse blood 2.5% (v/v) (S. pyogenes). All strains were cultivated at 37° C., aerobically for S. aureus strains.
Bacterial cultures were stopped in their exponential growth phase and plates were inoculated with the approximate concentration of 10^3 cells per well. Plates were incubated at 37° C. for 18 hours (S. aureus) or 24 hours (S. pyogenes). Optical density at a wavelength of 600 nm was measured at the end of the incubation time. […] Experiments were performed at least as triplicate biological replicates with all strains.

MRSA 01 [1] = assay: Time-kill assay; assay type: cell-based, Staphylococcus aureus; settings: initial inoculum 7 log10 cfu/ml, niclosamide 4 μg/ml [MIC×10]
Protocol: This assay was performed in 20 ml of medium. It included a negative control (medium without bacteria), a positive control (bacteria grown without niclosamide) and the assay (bacteria grown with niclosamide). […] This experiment was performed with the primary test microorganism indicated above.
The overnight culture was stopped and OD600 was measured. Culture was then diluted in indicated medium to obtain an OD600 of 0.25 in order to have about 5×10^8 cfu/ml. Two hundred μl of this diluted culture were then added in all conditions except in the negative control. Initial bacterial concentration was about 5×10^6 cfu/ml. Tubes were incubated aerobically at 37° C. for 24 hours.
Bacteria were enumerated before the incubation, after 30 minutes, 1, 2, 4, 8 and 24 hours of incubation by serial dilutions in NaCl 0.9% and plating on LB agar, with 2 plates per dilution. Plates were incubated at 37° C. and colonies enumerated after 24 hours.

[2] = system: MRSA 01, MRSA 15 (fusidic acid-resistant), MRSA 16 (mupirocin-resistant); assay: Mutational frequency evaluation (spontaneous single-step mutations), Example 1; assay type: cell-based, Staphylococcus aureus; settings: at MIC×1 (Example 1)
S. pyogenes = assay: MIC assay, Example 2, S. pyogenes strains (in BHI); assay type: cell-based, Streptococcus pyogenes; settings: 4 strains
Protocol: Two-hundred-four other MRSA and methicillin-sensitive S. aureus strains, and 4 Streptococcus pyogenes strains, were also included in the study. These covered fusidic acid- and mupirocin-resistant strains, these two types of resistance being of clinical relevance.
Strains were conserved in Luria Bertani (LB) Broth (S. aureus) or Brain Heart Infusion (BHI) (S. pyogenes) supplemented with glycerol 15% (v/v) at −80° C., and reactivated by isolation on LB (S. aureus) or BHI (S. pyogenes) agar plates. Strains were cultivated in Mueller Hinton (MH) Broth-cation adjusted (S. aureus) or BHI (S. pyogenes). All strains were cultivated aerobically (microaerobically for S. pyogenes strains) at 37° C.
Bacterial cultures were stopped in their exponential growth phase and plates were inoculated with the approximate concentration of 5×10^5 cells per well. Plates were incubated at 37° C. for 18 hours (S. aureus) or 24 hours (S. pyogenes). Optical density at a wavelength of 600 nm was measured at the end of the incubation time.

MRSA 01 [3] = assay: Effect of pH on the antibacterial activity (MIC in pH-adjusted Mueller-Hinton Broth); assay type: cell-based, Staphylococcus aureus; settings: for MIC: Staphylococcus aureus, MRSA
Protocol: Chosen for its relevance regarding bacterial skin infections, the methicillin-resistant S. aureus (MRSA) 01 strain was used. This strain is a community-acquired MRSA clinical isolate of USA 300 type, from a skin abscess.
This strain was conserved in Luria Bertani (LB) Broth supplemented with glycerol 15% (v/v) at −80° C., and reactivated by isolation on LB agar plates. It was then cultivated aerobically in Mueller Hinton (MH) Broth-cation adjusted at 37° C.
The pH of Mueller-Hinton Broth cation-adjusted was adjusted with HCl 2M to 7, 6.5, 6, 5.5, 5, 4.5 and […]. Ten ml of medium for each pH were prepared. The pH of non-adjusted MHBII was equal to 7.4.
Each pH-adjusted samples were filtered on 0.2 μm filters before being used for the MIC determination assay.
Bacterial culture was stopped in its exponential growth phase and plates were inoculated with the approximate concentration of 5×10^5 cells per well. Plates were incubated at 37° C. for 18 hours (S. aureus). Optical density at a wavelength of 600 nm was measured at the end of the incubation time.
The experiment was performed in triple biological replicates.

[4] = Mini-pig PK: niclosamide concentration in plasma; assay type: in vivo, Göttingen SPF mini-pigs; settings: mini-pigs, day 28, dermal application of the formulations
Protocol: The study was performed in 3 male and 3 female Göttingen SPF mini-pigs from Ellegaard Göttingen Mini-pigs A/S, DK-4261 Dalmose, Denmark. At the start of the acclimatization period, the animals were approximately 6 months old and the body weight was 12.1 to 13.4 kg. An acclimatization period of at least 1 week was allowed, during which the animals were observed daily.
All test fields were semi-occluded with Mefix® (Mölnlycke Health Care, Sweden), allowing the sites to “breathe” while keeping the test substance in place. The Mefix® was kept in place with adhesive tape (Tensoplast, BSN medical, Germany) for 6 hours±30 minutes after application to ensure that the compounds were absorbed into the skin.

P. aeruginosa = settings: Imperi et al. 2013, cited from earlier work

Question: With `O=C(Nc1ccc([N+](=O)[O-])cc1Cl)c1cc(Cl)ccc1O` [Niclosamide, niclosamide] as the compound, how does the MIC (S. aureus; MRSA, * tested against one strain: MRSA 01, read-out: Mic100 S. aureus) read?
Answer: ≤ 0.4 µg/mL

Question: And the MIC (S. aureus; MRSA, strain MRSA 01, read-out: MIC)?
Answer: 0.4 µg/mL (≈ 1.22 µM)

Question: And the MIC (S. aureus; MRSA, strain MRSA 02, read-out: MIC)?
Answer: 0.2 µg/mL (≈ 0.611 µM)

Question: What about the MIC (S. aureus; MRSA, strain MRSA 03*, read-out: MIC) of the same compound?
Answer: 0.4 µg/mL (≈ 1.22 µM)

Question: And the MIC (S. aureus; MRSA, strain MRSA 04, read-out: MIC)?
Answer: 0.4 µg/mL (≈ 1.22 µM)

Question: And the MIC (S. aureus; MRSA, strain MRSA 05, read-out: MIC)?
Answer: 0.2 µg/mL (≈ 0.611 µM)

Question: What about the MIC (S. aureus; MRSA, strain MRSA 06, read-out: MIC) of the same compound?
Answer: 0.4 µg/mL (≈ 1.22 µM)

Question: And the MIC (S. aureus; MRSA, strain MRSA 07, read-out: MIC)?
Answer: 0.2 µg/mL (≈ 0.611 µM)

Question: What about the MIC (S. aureus; MRSA, strain MRSA 08*, read-out: MIC) of the same compound?
Answer: 0.4 µg/mL (≈ 1.22 µM)

Question: And the MIC (S. aureus; MRSA, strain MRSA 09, read-out: MIC)?
Answer: 0.2 µg/mL (≈ 0.611 µM)

Question: What about the MIC (S. aureus; MRSA, strain MRSA 10, read-out: MIC) of the same compound?
Answer: 0.4 µg/mL (≈ 1.22 µM)

Question: And the MIC (S. aureus; MRSA, strain MRSA 11, read-out: MIC)?
Answer: 0.1 µg/mL (≈ 0.306 µM)

Question: What about the MIC (S. aureus; MRSA, strain MRSA 12*, read-out: MIC) of the same compound?
Answer: 0.4 µg/mL (≈ 1.22 µM)

Question: What about the MIC (S. aureus; MRSA, strain MRSA 13*, read-out: MIC) of the same compound?
Answer: 0.4 µg/mL (≈ 1.22 µM)

Question: What about the MIC (S. aureus; MRSA, strain MRSA 14*, read-out: MIC) of the same compound?
Answer: 0.4 µg/mL (≈ 1.22 µM)

Question: What about the MIC (S. aureus; MRSA, strain MRSA 15*, read-out: MIC) of the same compound?
Answer: 0.2 µg/mL (≈ 0.611 µM)

Question: What about the MIC (S. aureus; MRSA, strain MRSA 16*, read-out: MIC) of the same compound?
Answer: 0.2 µg/mL (≈ 0.611 µM)

Question: And the MIC (S. aureus; MRSA, strain MRSA 17*, read-out: MIC)?
Answer: 0.2 µg/mL (≈ 0.611 µM)

Question: What about the MIC (S. aureus; MSSA, strain MSSA 01*, read-out: MIC) of the same compound?
Answer: 0.4 µg/mL (≈ 1.22 µM)

Question: And the MIC (S. aureus; MSSA, strain MSSA 02*, read-out: MIC)?
Answer: 0.4 µg/mL (≈ 1.22 µM)

Question: And the MIC (S. aureus; NEWMAN, strain Newman, read-out: MIC)?
Answer: 0.2 µg/mL (≈ 0.611 µM)

Question: What about the MIC (S. aureus; strain EEFIC 01*, read-out: MIC) of the same compound?
Answer: 0.4 µg/mL (≈ 1.22 µM)

Question: What about the MIC (S. aureus; strain EEFIC 02*, read-out: MIC) of the same compound?
Answer: 0.2 µg/mL (≈ 0.611 µM)

Question: And the “bactericidal or bacteriostatic effect” value (MRSA 01 [1])?
Answer: bacteriostatic effect

Question: And the mutational frequency [2]?
Answer: < 4×10^−10

Question: What about the “MIC distribution: percentage of Streptococcus pyogenes strains” value (from here on “MIC distribution: percentage”) (S. pyogenes; MIC 0.0625 μg/ml) of the same compound?
Answer: 25%

Question: What about the “MIC distribution: percentage” value (S. pyogenes; MIC 0.5 μg/ml) of the same compound?
Answer: 25% (1/4)

Question: And the “MIC distribution: percentage” value (S. pyogenes; MIC […])?
Answer: 25% (1/4)

Question: What about the MIC (MRSA 01 [3]; MRSA 01, pH 7.0 (actual pH 7.071), Replicate 2) of the same compound?
Answer: 0.125 µg/mL (≈ 0.382 µM)

Question: What about the MIC (MRSA 01 [3]; pH 7.4, MRSA 01, pH not adjusted (actual pH 7.4), Replicate 1) of the same compound?
Answer: 0.5 µg/mL (≈ 1.53 µM)

Question: What about the MIC (MRSA 01 [3]; pH 7.4, MRSA 01, pH not adjusted (actual pH 7.4), Replicate 3) of the same compound?
Answer: 0.5 µg/mL (≈ 1.53 µM)

Question: And the “inhibitory activity against MRSA 01 as a function of pH” value (MRSA 01 [3]; pH-adjusted Mueller-Hinton Broth)?
Answer: increased when pH was decreased

Question: And the “concentration in the plasma” value [4]?
Answer: less than 0.651 ng/mL

Question: What about the “effect on growth of P. aeruginosa” value (P. aeruginosa) of the same compound?
Answer: does not affect the growth of P. aeruginosa

Question: What about the “concentration at which some inhibition was detected (quorum sensing)” value (P. aeruginosa; P. aeruginosa) of the same compound?
Answer: 1 µM

Question: And the “concentration required for optimal activity (quorum sensing)” value (P. aeruginosa; P. aeruginosa)?
Answer: 20 µM
